Consider 4 molecules from paper PMC3914206.

The target of this assay is T1, panel of 442 kinases (Homo sapiens, UniProt O14976).
T1 construct: purchased KINOMEscan
T1 sequence (O14976 1-1311): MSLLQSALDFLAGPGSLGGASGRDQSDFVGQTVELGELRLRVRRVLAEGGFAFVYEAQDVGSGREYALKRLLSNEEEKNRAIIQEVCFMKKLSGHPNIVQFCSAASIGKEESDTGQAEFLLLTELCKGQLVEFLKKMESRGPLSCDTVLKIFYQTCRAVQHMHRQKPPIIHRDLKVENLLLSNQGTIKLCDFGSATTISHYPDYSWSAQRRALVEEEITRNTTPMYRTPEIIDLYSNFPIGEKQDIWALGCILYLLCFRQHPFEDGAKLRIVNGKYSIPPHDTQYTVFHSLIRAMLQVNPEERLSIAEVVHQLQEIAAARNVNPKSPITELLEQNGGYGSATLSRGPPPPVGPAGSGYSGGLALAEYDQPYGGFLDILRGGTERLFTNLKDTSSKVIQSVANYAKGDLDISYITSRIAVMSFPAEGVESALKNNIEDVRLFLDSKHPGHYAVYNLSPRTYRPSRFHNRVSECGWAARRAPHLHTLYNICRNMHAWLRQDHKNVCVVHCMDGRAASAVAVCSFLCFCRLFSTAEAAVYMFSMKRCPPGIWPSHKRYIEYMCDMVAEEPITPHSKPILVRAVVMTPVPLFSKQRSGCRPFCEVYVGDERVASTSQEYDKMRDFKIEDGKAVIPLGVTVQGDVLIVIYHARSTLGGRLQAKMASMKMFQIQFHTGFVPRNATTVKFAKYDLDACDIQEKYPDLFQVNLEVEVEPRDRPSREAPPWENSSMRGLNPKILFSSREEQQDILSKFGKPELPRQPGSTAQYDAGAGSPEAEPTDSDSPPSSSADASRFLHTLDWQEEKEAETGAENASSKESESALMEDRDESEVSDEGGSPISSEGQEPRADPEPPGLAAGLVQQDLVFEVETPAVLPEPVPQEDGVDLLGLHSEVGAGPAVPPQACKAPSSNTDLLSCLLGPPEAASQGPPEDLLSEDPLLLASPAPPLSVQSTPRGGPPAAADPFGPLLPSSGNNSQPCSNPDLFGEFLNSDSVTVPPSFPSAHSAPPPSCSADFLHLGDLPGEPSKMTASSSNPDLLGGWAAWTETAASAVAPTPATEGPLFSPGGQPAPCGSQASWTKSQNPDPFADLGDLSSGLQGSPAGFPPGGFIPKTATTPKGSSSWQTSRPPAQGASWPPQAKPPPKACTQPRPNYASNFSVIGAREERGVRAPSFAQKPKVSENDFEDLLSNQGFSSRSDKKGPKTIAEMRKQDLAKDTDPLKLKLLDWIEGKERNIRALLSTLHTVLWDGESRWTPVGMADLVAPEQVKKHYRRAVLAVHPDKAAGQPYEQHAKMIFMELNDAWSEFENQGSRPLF
It counts as binding. To be noted: Compound Concentration 10 µM. The text has this: We assessed the selectivity of members of this scaffold using the KINOMEscan methodology across a near comprehensive panel of 442 kinases [[18,27]].
Consider `CCOc1cc(C(=O)N2CCC(N3CCN(C)CC3)CC2)ccc1Nc1ncc2c(n1)N(C1CCCC1)c1ccccc1C(=O)N2C` [Compound 26], for which the “KINOMEscan: GAK” value came out at 100.
Take `COc1cc(C(=O)N2CCC(N3CCN(C)CC3)CC2)ccc1Nc1ncc2c(n1)N1CCc3cccc(c31)C(=O)N2C` [Compound 24]: the “KINOMEscan: GAK” value amounted to 19.
Take `COc1cc(C(=O)N2CCC(N3CCN(C)CC3)CC2)ccc1Nc1ncc2c(n1)N(C)c1ccccc1C(=O)N2C` [15 (LRRK2-IN-1)]: the “KINOMEscan: GAK” value came to 16.
To `COc1cc(C(=O)N2CCC(N3CCN(C)CC3)CC2)ccc1Nc1ncc2c(n1)N(C1CCCC1)c1ccccc1C(=O)N2C` [Compound 25, 11-cyclopentyl-2-((2-methoxy-4-(4-(4-methylpiperazin-1-yl)piperidine-1-carbonyl)phenyl)amino)-5-methyl-5H-benzo[e]pyrimido[5,4-b][1,4]diazepin-6(11H)-one] belongs 82.
